Measured values as given in US12679878B2, “CRF2 receptor agonists and their use in therapy” (SANOFI, priority 2020, dated 2026).
Starred links: 1 amine or outer side, 2 acyl side, 3 side chain; linkers in the order of their positions; H or OH if unused. Non-standard residues stand in square brackets, D forms with d. Residues, ends and D or L forms follow the SMILES beside them. Groups on a side chain read outwards from the residue. *: point of attachment. C18 diacid = O=C(O)CCCCCCCCCCCCCCCCC(=O)*; γGlu = O=C(O)[C@H](CCC(=O)[*:2])N[*:1]; AEEA = NCCOCCOCC(=O)O; Aib = CC(C)(N)C(=O)O

Target: T1, human CRF2α receptor (Homo sapiens, UniProt Q13324)
T1 construct: expressed in transfected cells; host or cells: TeloHEAC
T1 sequence (Q13324 1-411): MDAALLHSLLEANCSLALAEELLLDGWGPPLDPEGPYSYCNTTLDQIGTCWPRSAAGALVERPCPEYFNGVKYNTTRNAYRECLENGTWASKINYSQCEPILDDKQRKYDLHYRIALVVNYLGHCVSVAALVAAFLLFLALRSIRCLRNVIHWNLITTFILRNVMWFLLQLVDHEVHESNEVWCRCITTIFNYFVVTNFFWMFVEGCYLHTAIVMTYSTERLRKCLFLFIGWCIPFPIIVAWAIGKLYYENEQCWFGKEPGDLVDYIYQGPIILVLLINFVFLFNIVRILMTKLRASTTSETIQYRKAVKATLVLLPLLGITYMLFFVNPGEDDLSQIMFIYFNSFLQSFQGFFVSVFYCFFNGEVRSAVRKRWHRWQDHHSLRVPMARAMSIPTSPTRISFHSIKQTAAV
Assay: cAMP agonism at human CRF2 α receptor in TeloHEAC cells (Example 7)
Format: cell-based
Conditions: cAMP HTRF, TeloHEAC cells stably expressing human CRF2 α, 0% HSA; read-out: EC50 [nM], 0% HSA
Procedure: Agonism of compounds for human corticotropin-releasing factor 2α (CRF2 α receptor) was determined by functional assays measuring CAMP response of a TeloHEAC cell line stably expressing human CRF2 α receptor.
Cells were grown in a T175 culture flask placed at 37° C. to near confluence in medium (DMEM/10% FBS) and collected in 2 ml vials in cell culture medium containing 10% DMSO in a concentration of 10-50 million cells/ml. Each vial contained 1.8 ml cells. The vials were slowly frozen to −80° C. in isopropanol and then transferred in liquid nitrogen for storage. Prior to use, frozen cells were thawed quickly at 37° C. and washed (5 min at 900 rpm) with 20 ml cell buffer (1×HBSS; 20 mM HEPES; 0% or 0.1% HSA). Cells were resuspended in assay buffer (cell buffer plus 2 mM IBMX) and adjusted to a cell density of 1 million cells/ml. For measurement, 5 μl cells (final […]) and 5 μL of test compound were added to a 384-well plate, followed by incubation for 30 minutes at room temperature.
The CAMP content of cells was determined using a kit from Cisbio Corp. (cat. no. 62AM4PEC) based on HTRF (Homogenous Time Resolved Fluorescence). After addition of HTRF reagents diluted in lysis buffer (kit components), the plates were incubated for 1 h, followed by measurement of the fluorescence ratio at 665/620 nm. The percent activity value (E %) was calculated by setting 1000 nM of urocortin 2 (UCN2) as 100%. The in vitro potency of the compounds was quantified by determining the concentrations that caused 50% activation of maximal response (EC50).

| SMILES | EC50 |
| --- | --- |
| CC[C@H](C)[C@H](N)C(=O)N[C@H](C(=O)N[C@@H](CC(C)C)C(=O)N[C@@H](CO)C(=O)N[C@@H](CC(C)C)C(=O)N[C@@H](CC(=O)O)C(=O)N[C@H](C(=O)N1CCC[C@H]1C(=O)N[C@H](C(=O)N[C@@H](CCCCN)C(=O)N[C@@H](CC(C)C)C(=O)N[C@@H](CCCCNC(=O)COCCOCCNC(=O)COCCOCCNC(=O)CC[C@H](NC(=O)CCCCCCCCCCCCCCCCC(=O)O)C(=O)O)C(=O)N[C@@H](CCC(N)=O)C(=O)N[C@@H](CCCCN)C(=O)N[C@@H](CC(C)C)C(=O)N[C@@H](CC(C)C)C(=O)N[C@@H](CCCCN)C(=O)N[C@@H](CCC(N)=O)C(=O)N[C@@H](CCC(=O)O)C(=O)N[C@@H](CCCNC(=N)N)C(=O)N[C@@H](CCC(N)=O)C(=O)N[C@@H](CCCNC(=N)N)C(=O)NC(C)(C)C(=O)N[C@@H](CCC(=O)O)C(=O)N[C@@H](CCCNC(=N)N)C(=O)N[C@@H](CCC(N)=O)C(=O)N[C@@H](CCC(N)=O)C(=O)N[C@@H](C)C(=O)N[C@@H](CCC(=O)O)C(=O)N[C@H](C(=O)N[C@@H](CC(N)=O)C(=O)N[C@@H](CCCCN)C(=O)N[C@@H](CCCNC(=N)N)C(=O)N[C@H](C(=O)N[C@@H](CC(C)C)C(=O)N[C@@H](CCC(=O)O)C(=O)N[C@@H](CCCNC(=N)N)C(=O)N[C@H](C(N)=O)C(C)C)[C@@H](C)CC)[C@@H](C)O)[C@@H](C)O)C(C)C)C(C)C [compound 38] (H-IVLSLDVPTKLK([AEEA-AEEA-γGlu-C18 diacid])QKLLKQERQR[Aib]ERQQAETNKRILERV-NH2) | 20.9 nM |
| CC[C@H](C)[C@H](N)C(=O)N[C@H](C(=O)N[C@@H](CC(C)C)C(=O)N[C@@H](CO)C(=O)N[C@@H](CC(C)C)C(=O)N[C@@H](CC(=O)O)C(=O)N[C@H](C(=O)N1CCC[C@H]1C(=O)N[C@H](C(=O)N[C@@H](CCCCN)C(=O)N[C@@H](CC(C)C)C(=O)N[C@@H](CCCCNC(=O)COCCOCCNC(=O)COCCOCCNC(=O)CC[C@H](NC(=O)CCCCCCCCCCCCCCCCC(=O)O)C(=O)O)C(=O)N[C@@H](CCC(N)=O)C(=O)N[C@H](C(=O)N[C@@H](CC(C)C)C(=O)N[C@@H](CC(C)C)C(=O)N[C@@H](CCC(=O)O)C(=O)N[C@@H](CCC(N)=O)C(=O)N[C@@H](CCC(=O)O)C(=O)N[C@@H](CCCNC(=N)N)C(=O)N[C@@H](CCC(N)=O)C(=O)N[C@@H](CCCNC(=N)N)C(=O)N[C@@H](CCCCN)C(=O)N[C@@H](CCC(=O)O)C(=O)N[C@@H](CCCNC(=N)N)C(=O)N[C@@H](CCC(N)=O)C(=O)N[C@@H](CCC(N)=O)C(=O)N[C@@H](C)C(=O)N[C@@H](CCC(=O)O)C(=O)N[C@H](C(=O)N[C@@H](CC(N)=O)C(=O)N[C@H](C(=O)N[C@@H](CCC(N)=O)C(=O)N[C@H](C(=O)N[C@@H](CC(C)C)C(=O)N[C@@H](C)C(=O)N[C@@H](CCC(N)=O)C(=O)N[C@H](C(N)=O)C(C)C)[C@@H](C)CC)C(C)C)[C@@H](C)O)[C@@H](C)CC)[C@@H](C)CC)C(C)C)C(C)C [compound 40] (H-IVLSLDVPIKLK([AEEA-AEEA-γGlu-C18 diacid])QILLEQERQRKERQQAETNVQILAQV-NH2; N-terminus assumed) | 15.4 nM |
| CC[C@H](C)[C@H](N)C(=O)N[C@H](C(=O)N[C@@H](CC(C)C)C(=O)N[C@@H](CO)C(=O)N[C@@H](CC(C)C)C(=O)N[C@@H](CC(=O)O)C(=O)N[C@H](C(=O)N1CCC[C@H]1C(=O)N[C@H](C(=O)N[C@@H](CCCCN)C(=O)N[C@@H](CC(C)C)C(=O)N[C@@H](CCCCNC(=O)COCCOCCNC(=O)COCCOCCNC(=O)CC[C@H](NC(=O)CCCCCCCCCCCCCCCCC(=O)O)C(=O)O)C(=O)N[C@@H](CCC(N)=O)C(=O)N[C@H](C(=O)N[C@@H](CC(C)C)C(=O)N[C@@H](CC(C)C)C(=O)N[C@@H](CCC(=O)O)C(=O)N[C@@H](CCC(N)=O)C(=O)N[C@@H](CCC(=O)O)C(=O)N[C@@H](CCCNC(=N)N)C(=O)N[C@@H](CCC(N)=O)C(=O)N[C@@H](CCCNC(=N)N)C(=O)N[C@@H](CCCCN)C(=O)N[C@@H](CCC(=O)O)C(=O)N[C@@H](CCCNC(=N)N)C(=O)N[C@@H](CCC(N)=O)C(=O)N[C@@H](CCC(N)=O)C(=O)N[C@@H](C)C(=O)N[C@@H](CCC(=O)O)C(=O)N[C@@H](CCCCN)C(=O)N[C@@H](CC(N)=O)C(=O)N[C@H](C(=O)N[C@@H](CCCNC(=N)N)C(=O)N[C@H](C(=O)N[C@@H](CC(C)C)C(=O)N[C@@H](CCC(=O)O)C(=O)N[C@@H](CCCNC(=N)N)C(=O)N[C@H](C(N)=O)C(C)C)[C@@H](C)CC)C(C)C)[C@@H](C)CC)[C@@H](C)CC)C(C)C)C(C)C [compound 41] (H-IVLSLDVPIKLK([AEEA-AEEA-γGlu-C18 diacid])QILLEQERQRKERQQAEKNVRILERV-NH2; N-terminus assumed) | 15.6 nM |

These reach a lower EC50. Values come first.

| EC50 | SMILES |
| --- | --- |
| 6.88 nM | CC[C@H](C)[C@H](NC(=O)[C@H](CCC(N)=O)NC(=O)[C@H](CCCCN)NC(=O)[C@H](CC(N)=O)NC(=O)[C@@H](NC(=O)[C@H](CCCCN)NC(=O)[C@H](C)NC(=O)[C@H](CCCCN)NC(=O)[C@H](CCC(N)=O)NC(=O)[C@H](CCCNC(=N)N)NC(=O)[C@H](CCC(N)=O)NC(=O)[C@H](CCCCN)NC(=O)[C@H](CCCCN)NC(=O)[C@H](CCC(N)=O)NC(=O)[C@H](CCCCN)NC(=O)[C@H](CCC(=O)O)NC(=O)[C@H](CCC(N)=O)NC(=O)[C@H](CCCCN)NC(=O)[C@H](CC(C)C)NC(=O)[C@H](CC(C)C)NC(=O)[C@H](CCCCN)NC(=O)[C@H](CCC(N)=O)NC(=O)[C@H](CCCCNC(=O)COCCOCCNC(=O)COCCOCCNC(=O)CC[C@H](NC(=O)CCCCCCCCCCCCCCCCC(=O)O)C(=O)O)NC(=O)[C@@H](NC(=O)[C@H](CCCCN)NC(=O)[C@@H](NC(=O)[C@@H]1CCCN1C(=O)[C@@H](NC(=O)[C@H](CC(=O)O)NC(=O)[C@H](CC(C)C)NC(=O)[C@H](CO)NC(=O)[C@H](CC(C)C)NC(=O)[C@@H](NC(=O)[C@@H](N)Cc1ccccc1)[C@@H](C)O)C(C)C)[C@@H](C)O)[C@@H](C)CC)[C@@H](C)O)C(=O)N[C@@H](CC(C)C)C(=O)N[C@@H](CCC(=O)O)C(=O)N[C@@H](CCC(N)=O)C(=O)N[C@H](C(N)=O)C(C)C [compound 34] (H-FTLSLDVPTKIK([AEEA-AEEA-γGlu-C18 diacid])QKLLKQEKQKKQRQKAKTNKQILEQV-NH2; N-terminus assumed) |
| 1.6 nM | CC[C@H](C)[C@H](N)C(=O)N[C@H](C(=O)N[C@@H](CC(C)C)C(=O)N[C@@H](CO)C(=O)N[C@@H](CC(C)C)C(=O)N[C@@H](CC(=O)O)C(=O)N[C@H](C(=O)N1CCC[C@H]1C(=O)N[C@H](C(=O)N[C@@H](CCCCN)C(=O)N[C@@H](CC(C)C)C(=O)N[C@@H](CCCCNC(=O)COCCOCCNC(=O)COCCOCCNC(=O)CC[C@H](NC(=O)CCCCCCCCCCCCCCCCC(=O)O)C(=O)O)C(=O)N[C@@H](CCC(N)=O)C(=O)N[C@@H](CCCCN)C(=O)N[C@@H](CC(C)C)C(=O)N[C@@H](CC(C)C)C(=O)N[C@@H](CCCCN)C(=O)N[C@@H](CCC(N)=O)C(=O)N[C@@H](CCC(=O)O)C(=O)N[C@@H](CCCNC(=N)N)C(=O)N[C@@H](CCC(N)=O)C(=O)N[C@@H](CCCNC(=N)N)C(=O)N[C@@H](CCCCN)C(=O)N[C@@H](CCC(=O)O)C(=O)N[C@@H](CCCNC(=N)N)C(=O)N[C@@H](CCC(N)=O)C(=O)N[C@@H](CCC(N)=O)C(=O)N[C@@H](C)C(=O)N[C@@H](CCC(=O)O)C(=O)N[C@H](C(=O)N[C@@H](CC(N)=O)C(=O)N[C@@H](CCCCN)C(=O)N[C@@H](CCCNC(=N)N)C(=O)N[C@H](C(=O)N[C@@H](CC(C)C)C(=O)N[C@@H](CCC(=O)O)C(=O)N[C@@H](CCCNC(=N)N)C(=O)N[C@H](C(N)=O)C(C)C)[C@@H](C)CC)[C@@H](C)O)[C@@H](C)O)C(C)C)C(C)C [compound 37] (H-IVLSLDVPTKLK([AEEA-AEEA-γGlu-C18 diacid])QKLLKQERQRKERQQAETNKRILERV-NH2; N-terminus assumed) |
